Broadly, the melting point is the temperature of the solid-liquid transition. One may read the IC50 as the concentration at which inhibition is half-maximal.

Experimental findings from PMC11054282, “Structural Investigations on 2-Amidobenzimidazole Derivatives as New Inhibitors of Protein Kinase CK1 Delta” (Pharmaceuticals, 2024) are described below.

Each structure is given as a SMILES string. Values joined by “and” are separate entries in the source; they are usually repeats but may differ in a detail not shown here. Identical values can stand only once.

For one data set, the target named is T1, truncated CK1δ (Homo sapiens, UniProt P48730).
T1 construct: truncated CK1δ, recombinant human, GST-tagged, aa 1-294, Merck Millipore; GST; purchased Merck Millipore, Merck KGaA, Darmstadt, Germany
T1 sequence (P48730 1-294): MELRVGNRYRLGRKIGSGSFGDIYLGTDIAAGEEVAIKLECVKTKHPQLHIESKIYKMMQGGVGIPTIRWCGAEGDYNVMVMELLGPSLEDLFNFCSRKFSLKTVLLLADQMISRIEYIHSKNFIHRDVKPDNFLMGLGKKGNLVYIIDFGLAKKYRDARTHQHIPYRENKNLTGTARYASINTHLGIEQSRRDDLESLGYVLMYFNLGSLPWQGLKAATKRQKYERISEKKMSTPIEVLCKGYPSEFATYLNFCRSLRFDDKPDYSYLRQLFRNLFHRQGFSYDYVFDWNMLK
Nature of the data set: CK1δ luminescent kinase assay (Kinase Glo kit). The data set is classed as biochemical. Particulars: for IC50: truncated recombinant human CK1δ (aa 1-294), casein substrate, 2 μM ATP, mean ± SE of three independent experiments in duplicate. As for the experimental part: The newly synthesized derivatives 1–32 were tested on truncated CK1δ using the luminescent kinase assay Kinase Glo® KIT (Promega Italy S.r.l., Milan, Italy), and the results are reported in Table 1 and Table 2. Derivatives were tested at a fixed dose of 40 μM; then, those showing a residual kinase activity percentage lower than 50% were tested at 10 μM.
The inhibitory activity of synthesized compounds on CK1δ has been carried out following a procedure for a luminescence-based assay (KinaseGlo® kit, Promega Italy Srl, Milan, Italy) already reported in the literature. Luminescent assays were performed in white 96-well plates in a 40 μL final volume. The buffer used is a milliq water solution of 50 mM HEPES (pH 7.5), 1 mM EDTA, 1 mM EGTA, and 15 mM MgCl2. In a typical assay, 10 μL of inhibitor solution (desired concentrations were obtained by diluting in buffer a starting 10 mM solution in DMSO) and 10 μL of enzyme solution (truncated CK1δ, recombinant human, GST-tagged, aa 1-294, Merck Millipore, Merck KGaA, Darmstadt, Germany) were added to the well, followed by 20 μL of assay buffer containing casein substrate (casein solution from bovine milk, 5% in water, Sigma-Aldrich, Merck KGaA, Darmstadt, Germany) and ATP, at a final concentration of 0.05% and 2 μM, respectively. The final enzyme concentration was 6.5 nM. […] After 60 min of incubation at 30 °C, the enzymatic reactions were stopped with the addition of 40 μL of KinaseGlo reagent (Promega Italy Srl, Milan, Italy). The luminescence signal (relative light unit, RLU) was recorded after 10 min at 25 °C using a Tecan Infinite M100. […] IC50 values were evaluated using ten different inhibitor concentrations ranging from 100 to 0.026 μM. Data were analyzed using Excel and GraphPad Prism software (version 8.0).
On the technique in general: Kinase-Glo reads ATP consumption through a luciferase reaction.

Take `O=C(Cn1ccc(C(=O)Nc2nc3ccccc3[nH]2)n1)c1ccccc1` [Compound 1, N-(1H-Benzimidazol-2yl)-1-(2-oxo-2-phenylethyl)-1H-pyrazole-3-carboxamide]: the melting point lay within 220 to 221 °C. Also, on truncated CK1δ, the IC50 is above 40 µM.
Compound `Cc1ccc2[nH]c(NC(=O)c3ccn(CC(=O)c4ccccc4)n3)nc2c1` [Compound 2, N-(5(6)-Methyl-1H-benzimidazol-2yl)-1-(2-oxo-2-phenylethyl)-1H-pyrazole-3-carboxamide] gave a melting point of 199 to 200 °C. Besides, the IC50 at truncated CK1δ was < 15 µM and 14.6 µM.
In turn, `O=C(Cn1ccc(C(=O)Nc2nc3cc(Cl)ccc3[nH]2)n1)c1ccccc1` [Compound 3, N-(5(6)-Chloro-1H-benzimidazol-2yl)-1-(2-oxo-2-phenylethyl)-1H-pyrazole-3-carboxamide] displayed a melting point of 200 to 203 °C. Further, the IC50 at truncated CK1δ was < 15 µM and 1.8 µM.
In turn, `COc1ccccc1C(=O)Cn1ccc(C(=O)Nc2nc3ccccc3[nH]2)n1` [Compound 4, N-(1H-Benzimidazol-2yl)-1-(2-(2-methoxyphenyl)-2-oxoethyl)-1H-pyrazole-3-carboxamide] registered a melting point of 168 to 170 °C. Also, the half-maximal inhibitory concentration (IC50) on truncated CK1δ was above 40 µM.
On the same counts, the results for `COc1ccccc1C(=O)Cn1ccc(C(=O)Nc2nc3cc(C)ccc3[nH]2)n1` [Compound 5, N-(5(6)-Methyl-1H-benzimidazol-2yl)-1-(2-(2-methoxyphenyl)-2-oxoethyl)-1H-pyrazole-3-carboxamide] are 201 to 203 °C and above 40 µM.
`COc1ccccc1C(=O)Cn1ccc(C(=O)Nc2nc3cc(Cl)ccc3[nH]2)n1` [Compound 6, N-(5(6)-Chloro-1H-benzimidazol-2yl)-1-(2-(2-methoxyphenyl)-2-oxoethyl)-1H-pyrazole-3-carboxamide] gave a melting point of 219 to 221 °C. In addition, the IC50 at truncated CK1δ is < 15 µM and 13.2 µM.
`O=C(Nc1nc2ccccc2[nH]1)c1cc[nH]n1` [Compound 7, N-(1H-Benzimidazol-2-yl)-1H-pyrazole-3(5)-carboxamide] displayed a melting point above 300 °C. Besides, on truncated CK1δ, the IC50 is above 40 µM.
The like results for `Cc1ccc2[nH]c(NC(=O)c3cc[nH]n3)nc2c1` [Compound 8, N-(5(6)-Methyl-1H-benzimidazol-2-yl)-1H-pyrazole-3(5)-carboxamide] were, in that order, above 300 °C and above 40 µM.
On the same counts, the results for `O=C(Nc1nc2cc(Cl)ccc2[nH]1)c1cc[nH]n1` [Compound 9, N-(5(6)-Chloro-1H-benzimidazol-2-yl)-1H-pyrazole-3(5)-carboxamide] are above 300 °C and above 40 µM.
On the same counts, the results for `O=C(Nc1nc2cc(C(F)(F)F)ccc2[nH]1)c1cc[nH]n1` [Compound 10, 1H-Pyrazole-N-(5(6)-trifluoromethyl-1H-benzimidazol-2-yl)-3(5)-carboxamide] are above 300 °C and above 40 µM.
The compound `COc1ccc2[nH]c(NC(=O)c3cc[nH]n3)nc2c1` [Compound 11, N-(5(6)-Methoxy-1H-benzimidazol-2-yl)-1H-pyrazole-3(5)-carboxamide] came in with a melting point above 300 °C. On truncated CK1δ, the IC50 is above 40 µM.
On the same counts, the results for `O=C(Nc1nc2cc([N+](=O)[O-])ccc2[nH]1)c1cc[nH]n1` [Compound 12, N-(5(6)-Nitro-1H-benzimidazol-2-yl)-1H-pyrazole-3(5)-carboxamide] are above 300 °C and above 40 µM.
The like results for `O=C(Cc1cc[nH]n1)Nc1nc2ccccc2[nH]1` [Compound 13, N-(1H-benzimidazol-2-yl)-2-(1H-pyrazol-3(5)-yl)acetamide] were, in that order, 295 to 297 °C and 4.21 ± 1.92 µM.
On to `Cc1ccc2[nH]c(NC(=O)Cc3cc[nH]n3)nc2c1` [Compound 14, N-(5(6)-Methyl-1H-benzimidazol-2-yl)-2-(1H-pyrazol-3(5)-yl)acetamide], for which the melting point is 257 °C (dec.). For the same compound, the IC50 at truncated CK1δ was 1.64 ± 0.31 µM.
Compound `O=C(Cc1cc[nH]n1)Nc1nc2cc(Cl)ccc2[nH]1` [Compound 15, N-(5(6)-Cloro-1H-benzimidazol-2-yl)-2-(1H-pyrazol-3(5)-yl)acetamide] registered a melting point of 286 to 288 °C. The half-maximal inhibitory concentration (IC50) at truncated CK1δ was found to be 0.485 ± 0.31 µM.
The like results for `O=C(Cc1cc[nH]n1)Nc1nc2cc(C(F)(F)F)ccc2[nH]1` [Compound 16, 2-(1H-Pyrazol-3(5)-yl)-N-(5(6)-trifluoromethyl-1H-benzimidazol-2-yl)acetamide] were, in that order, 275 to 277 °C and 1.74 ± 0.32 µM.
The like results for `COc1ccc2[nH]c(NC(=O)Cc3cc[nH]n3)nc2c1` [Compound 17, N-(5(6)-Methoxy-1H-benzimidazol-2-yl)-2-(1H-pyrazol-3(5)-yl)acetamide] were, in that order, 239 to 240 °C and 6.27 ± 0.95 µM.
`O=C(Cc1cc[nH]n1)Nc1nc2cc([N+](=O)[O-])ccc2[nH]1` [Compound 18, N-(5(6)-Nitro-1H-benzimidazol-2-yl)(1H-pyrazol-3(5)-yl)-2-acetamide] came in with a melting point of 272 to 274 °C. Further, the IC50 on truncated CK1δ turned out to be 0.12 ± 0.083 µM.
In turn, `O=C(Cc1cc[nH]n1)Nc1nc2c([N+](=O)[O-])cccc2[nH]1` [Compound 19, N-(4(7)-Nitro-1H-benzimidazol-2-yl)(1H-pyrazol-3(5)-yl)-2-acetamide] came in with a melting point of 280 to 282 °C. At truncated CK1δ (19 (4-NO2) versus 18 (5-NO2)), the “fold less potent than the regioisomer 18 (CK1δ)” value came out at 10 fold. Also, the IC50 at truncated CK1δ amounted to 1.22 ± 0.23 µM.
Regarding `CC(C)(C)c1ccc2[nH]c(NC(=O)Cc3cc[nH]n3)nc2c1` [Compound 20, N-(5(6)-terButyl-1H-benzimidazol-2-yl)(1H-pyrazol-3(5)-yl)-2-acetamide], on truncated CK1δ, the IC50 is 1 ± 0.18 µM.
The compound `O=C(Cc1cc[nH]n1)Nc1nc2cc(OC(F)(F)F)ccc2[nH]1` [Compound 21, 2-(1H-Pyrazol-3(5)-yl)-N-(5(6)-trifluoromethoxy-1H-benzimidazol-2-yl)acetamide] showed a melting point of 270 to 274 °C. In addition, on truncated CK1δ, the 50% inhibitory concentration (IC50) was determined as 5.99 ± 0.87 µM.
On the same counts, the results for `O=C(Cc1cc[nH]n1)Nc1nc2cc(Cl)c(Cl)cc2[nH]1` [Compound 22, N-(5,6-Dichloro-1H-benzimidazol-2-yl)-2-(1H-pyrazol-3(5)-yl)acetamide] are above 300 °C and 0.98 ± 0.35 µM.
The like results for `N#Cc1ccc2[nH]c(NC(=O)Cc3cc[nH]n3)nc2c1` [Compound 23, N-(5(6)-Cyano-1H-benzimidazol-2-yl)(1H-pyrazol-(3)5-yl)-2-acetamide] were, in that order, 267 to 268 °C and 0.0986 ± 0.0394 µM.
As to `NC(=O)c1ccc2[nH]c(NC(=O)Cc3cc[nH]n3)nc2c1` [Compound 24], the melting point is 290 to 292 °C. Further, the IC50 on truncated CK1δ was determined as 2.53 ± 0.38 µM.
On the same counts, the results for `NS(=O)(=O)c1ccc2[nH]c(NC(=O)Cc3cc[nH]n3)nc2c1` [Compound 25, 2-(1H-Pyrazol-3(5)-yl)-N-(5(6)-sulfamoyl-1H-benzimidazol-2-yl)acetamide] are 285 to 287 °C and above 40 µM.
`CNS(=O)(=O)c1ccc2[nH]c(NC(=O)Cc3cc[nH]n3)nc2c1` [Compound 26] gave a melting point of 238 to 240 °C. The IC50 at truncated CK1δ was < 15 µM and 10.7 µM.
In the case of `CC(=O)Nc1ccc2[nH]c(NC(=O)Cc3cc[nH]n3)nc2c1` [Compound 27, N-(5(6)-Acetamido-1H-benzimidazol-2-yl)(1H-pyrazol-3(5)-yl)acetamide], on truncated CK1δ, the IC50 was above 40 µM.
`O=C(Cc1cc[nH]n1)Nc1nc2cc(NC(=O)c3ccccc3)ccc2[nH]1` [Compound 28, N-(2-(2-(1H-Pyrazol-3-yl)acetamido)-1H-benzimidazol-3(5)-yl)benzamide] returned a melting point of 292 to 293 °C. In addition, at truncated CK1δ, the IC50 is above 40 µM.
The like results for `O=C(Cc1cc[nH]n1)Nc1nc2c(NC(=O)c3ccccc3)cccc2[nH]1` [Compound 29, N-(2-(2-(1H-Pyrazol-3-yl)acetamido)-1H-benzimidazol-4(7)-yl)benzamide] were, in that order, 280 °C (dec.) and above 40 µM.
Take `Cn1c(NC(=O)Cc2cc[nH]n2)nc2ccc(Cl)cc21` [Compound 32, N-(6-Chloro-1-methyl-benzimidazol-2-yl)(1H-pyrazol-3(5)-yl)acetamide]: at truncated CK1δ, the IC50 was determined as 20.1 ± 7.3 µM.
